Measured values published in patent US8664400B2, “Triphenylamine derivatives useful as fluorophores in biology, in particular for two-photon microscopy” (Centre National de la Recherche Scientifique, priority 2006, dated 2014).
Where two headings read alike, the source gives them in different places.

What was measured:
[1] = Two-photon absorption by two-photon-induced fluorescence (TPIF); format: physicochemical
Description: (§1) The two-photon absorption properties of the compounds according to the invention were assessed using the two-photon-induced fluorescence (TPIF) technique and by means of a Titanium:Sapphire femtosecond laser source with pulses of 90 fs to 76 MHz which can be tuned to 750-840 nm.

[2] = according to the literature; cited from earlier work
ds26 DNA = test: Affinity for DNA by fluorometric titration; format: binding; conditions: 10 mM sodium cacodylate buffer, pH 7.0, 100 mM NaCl
[3] = system: duplex DNA of 26 base pairs of self-complementary sequence (ds26); test: Single-photon absorption and fluorescence emission in the presence of DNA; format: binding; conditions: for ΦF (quantum fluorescence yield) / ε / λabs. / λem.: DNA
[4] = Emission and single-photon absorption properties in glycerol or sodium cacodylate buffer; format: physicochemical
herring testis DNA = test: Two-photon absorption (TPIF) in the presence of DNA; format: physicochemical; conditions: for two-photon spectra in presence of DNA compared with glycerol: sodium cacodylate buffer 10 mM, pH 7.3, 5 equivalents herring testis DNA, all excitation wavelengths
Description: as §1

[5] = Photostability under irradiation with a 150 W xenon-mercury lamp; format: physicochemical; conditions: about thirty minutes
CHO K1 cells = test: Epifluorescence and confocal microscopy of fixed, treated cells; format: cell-based, Chinese hamster
Description: The CHO-K1 cells, cultured beforehand in wells, on glass supports coated with polyornithine, containing a commercially available standard culture medium, were fixed using a formaldehyde (4%) solution in PBS.
The cells were then incubated, at room temperature and for 20 minutes, in the presence of the markers or mixtures of markers to be tested (in aqueous solution) and then washed with PBS buffer (13 mM NaCl, 0.27 mM KCl, 0.15 mM KH2PO4, 0.8 mM Na2HPO4, pH 7.4) in order to remove the excess marker. […] The cells were then prepared conventionally for microscopic examination.
Epifluorescence microscopy examinations were carried out with a Nikon Eclipse E 800 microscope fitted with a 60× (1.4) lens and a Nikon DXM 1200 digital apparatus, while the confocal microscopy examinations were carried out with a Leica DM6000 microscope comprising an SP2 unit equipped with a 63× (1.4) lens and an HeNe laser for excitation of the markers.

[6] = 36 μM, 20° C.; cited from earlier work
[7] = 10 mM sodium cacodylate, pH 7.0, 5 μM compound, 0.5 to 5 equivalents ds26

SMILES | hypochromism caused by the presence of DNA [3, 7] | ΦF (quantum fluorescence yield) [3] | ε [3] | λabs. [3] [nm] | λem. [3] [nm] | ε ([4]; Na cacodyl.) | λabs. ([4]; Na cacodyl.) [nm] | ΦF (quantum fluorescence yield) ([4]; glyc.) | ε ([4]; glyc.) | λabs. ([4]; glyc.) [nm] | λem. ([4]; glyc.) [nm] | two-photon spectra in presence of DNA compared with glycerol (herring testis DNA) | also measured
C(=Cc1ccc(N(c2ccc(C=Cc3ccncc3)cc2)c2ccc(C=Cc3ccncc3)cc2)cc1)c1ccncc1 [tris[4-(2-pyridin-4-ylvinyl)phenyl]amine, reference compound] | – | – | – | – | – | – | – | – | – | – | – | – | two-photon excitation maximum ([1]; in dichloromethane): around 820 nm; efficient two-photon absorption section ([1]; measurements performed by the Inventors, in dichloromethane): 90 GM; efficient two-photon absorption section [2]: 58 GM
C[n+]1ccc(C=Cc2ccc(N(c3ccccc3)c3ccc(C=Cc4cc[n+](C)cc4)cc3)cc2)cc1.[I-].[I-] [TP-2Py, Bis[4-(2-N-methylpyridinium-4-ylvinyl)phenyl]phenylamine iodide] | about 20% | 0.07 | 31 400 L/mol · cm | 509 | 665 | 39 800 L/mol · cm | 474 | 0.112 | 37 400 L/mol · cm | 491 | 656 | identical to those previously observed in glycerol | dissociation constant Kd (ds26 DNA): of the order of the micromolar; shift of absorption spectra caused by the presence of DNA [3, 7]: shift towards the red region; molar extinction coefficient (ε) ([4]; in glycerol, at 474 nm): 37 400 L/mol·cm; δ (efficient two-photon absorption section) ([1]; glyc.): 315 GM; wavelength of relative maximum of two-photon absorption ([1]; in glycerol): ~820 nm; δ (efficient two-photon absorption section) (herring testis DNA; DNA): 200 GM
CN1C(=CC=Cc2cc[n+](CCC[N+](C)(C)C)c3ccccc23)Sc2ccccc21.[I-].[I-] [TO-PRO-3, 1-(N,N,N-trimethylaminopropyl)-4-{2-[3-methyl-2,3-dihydro-(benzo-1,3-thiazole)-2-ethylidene]vinyl}quinolinium iodide, reference compound] | – | – | – | – | – | – | – | – | – | – | – | – | decrease of fluorescence emission during irradiation [5]: more than 40%
C[n+]1ccc(C=Cc2ccc(N(c3ccc(C=Cc4cc[n+](C)cc4)cc3)c3ccc(C=Cc4cc[n+](C)cc4)cc3)cc2)cc1.[I-].[I-].[I-] [TP-3Py, Tris[4-(2-N-methylpyridinium-4-ylvinyl)phenyl]amine iodide] | about 20% | 0.021 | 51 000 L/mol · cm | 499 | 684 | 59 000 L/mol · cm | 474 | 0.123 | 66 000 L/mol · cm | 491 | 665 | identical to those previously observed in glycerol | image quality of chromosomes (CHO K1 cells; CHO K1 cells in mitosis, 2 μM, phase contrast and confocal microscopies coupled): very high degree of sharpness and a high resolution; location of fluorescence in cells (CHO K1 cells; fixed CHO K1 cells, 2 μM compound with DAPI 3 μM, 20 minutes, epifluorescence microscopy): located exclusively in the nucleus; stability at the focal point of the microscope lens (CHO K1 cells; fixed CHO K1 cells, 2 μM, epifluorescence microscopy): very stable; effect of irradiation on fluorescence emission [5]: scarcely modified
CN1C(=Cc2cc[n+](C)c3ccccc23)Sc2ccccc21 [thiazole orange] | – | – | – | – | – | – | – | – | – | – | – | – | form in aqueous medium (aggregation) [6]: in the form of dimers
